# Reference: ChEMBL document CHEMBL3392967, “Phosphatidylinositol 3-Kinase (PI3K) and phosphatidylinositol 3-kinase-related kinase (PIKK) inhibitors: importance of the morpholine ring” (J Med Chem, 2015)
# Several values for one entry are separate records, joined by “and”; a condition that tells them apart may be missing. Identical values can stand only once.
# Legend:
# [1] = target: T1, DNA-dependent protein kinase catalytic subunit (Homo sapiens, UniProt P78527); experiment: Inhibition of DNA-PK (unknown origin)
# [2] = target: Phosphatidylinositol 4,5-bisphosphate 3-kinase catalytic subunit alpha isoform (Homo sapiens, UniProt P42336)
# [3] = target: T1, DNA-dependent protein kinase catalytic subunit; experiment: Inhibition of DNA-PK purified from HeLa nuclear extracts assessed as EPPLSQEAFADLWKKR peptide substrate phosphorylation
# [4] = target: Serine/threonine-protein kinase mTOR (Homo sapiens, UniProt P42345); experiment: Inhibition of mTOR (unknown origin)
# MDA-MB-361 = experiment: cells; conditions: Homo sapiens
# [5] = Oral bioavailability in mouse; format: ADME, organism-based; conditions: in vivo
# [6] = Half life in mouse plasma at 25 mg/kg single dose; format: ADME, organism-based; parameters: dose 25 mg/kg
# [7] = target: Serine/threonine-protein kinase mTOR (Rattus norvegicus, UniProt P42346); experiment: Inhibition of rat derived mTOR using [gamma32P]ATP
# [8] = target: T2, Phosphatidylinositol 4,5-bisphosphate 3-kinase catalytic subunit delta isoform (Homo sapiens, UniProt O00329)
# T2 sequence (O00329 whole entry): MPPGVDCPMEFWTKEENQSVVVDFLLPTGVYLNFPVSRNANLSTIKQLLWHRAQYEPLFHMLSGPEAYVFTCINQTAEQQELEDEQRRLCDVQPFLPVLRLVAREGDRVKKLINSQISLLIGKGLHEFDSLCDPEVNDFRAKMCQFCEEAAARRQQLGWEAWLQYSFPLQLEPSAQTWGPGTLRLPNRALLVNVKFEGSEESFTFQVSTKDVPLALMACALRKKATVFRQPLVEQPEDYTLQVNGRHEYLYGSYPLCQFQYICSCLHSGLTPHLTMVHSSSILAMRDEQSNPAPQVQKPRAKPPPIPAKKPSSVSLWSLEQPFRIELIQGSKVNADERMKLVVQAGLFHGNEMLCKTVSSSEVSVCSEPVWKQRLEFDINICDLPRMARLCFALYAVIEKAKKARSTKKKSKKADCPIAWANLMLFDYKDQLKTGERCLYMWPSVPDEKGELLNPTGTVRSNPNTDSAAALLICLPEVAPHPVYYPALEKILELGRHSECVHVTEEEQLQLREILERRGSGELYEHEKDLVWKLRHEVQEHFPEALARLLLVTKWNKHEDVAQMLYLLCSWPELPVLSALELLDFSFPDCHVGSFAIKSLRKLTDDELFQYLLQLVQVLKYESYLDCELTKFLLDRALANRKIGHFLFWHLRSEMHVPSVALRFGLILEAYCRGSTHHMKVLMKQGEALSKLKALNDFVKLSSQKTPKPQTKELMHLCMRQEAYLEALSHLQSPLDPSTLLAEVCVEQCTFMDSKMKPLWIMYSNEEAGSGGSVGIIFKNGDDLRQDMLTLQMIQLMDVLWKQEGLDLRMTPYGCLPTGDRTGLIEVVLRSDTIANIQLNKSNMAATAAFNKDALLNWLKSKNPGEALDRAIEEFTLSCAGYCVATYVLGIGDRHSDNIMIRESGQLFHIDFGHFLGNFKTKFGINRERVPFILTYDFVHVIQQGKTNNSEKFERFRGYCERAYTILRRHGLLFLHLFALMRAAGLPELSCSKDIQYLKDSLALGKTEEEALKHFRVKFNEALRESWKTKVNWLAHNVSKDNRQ
# [9] = Inhibition of rapamycin-insensitive mTORC2 (unknown origin); parameters: species or system Homo sapiens
# [10] = Oral bioavailability in BALB/C mouse; format: ADME, organism-based; conditions: in vivo
# [11] = Half life in BALB/C mouse; format: ADME, organism-based; conditions: in vivo
# T1 sequence (P78527 whole entry, canonical isoform): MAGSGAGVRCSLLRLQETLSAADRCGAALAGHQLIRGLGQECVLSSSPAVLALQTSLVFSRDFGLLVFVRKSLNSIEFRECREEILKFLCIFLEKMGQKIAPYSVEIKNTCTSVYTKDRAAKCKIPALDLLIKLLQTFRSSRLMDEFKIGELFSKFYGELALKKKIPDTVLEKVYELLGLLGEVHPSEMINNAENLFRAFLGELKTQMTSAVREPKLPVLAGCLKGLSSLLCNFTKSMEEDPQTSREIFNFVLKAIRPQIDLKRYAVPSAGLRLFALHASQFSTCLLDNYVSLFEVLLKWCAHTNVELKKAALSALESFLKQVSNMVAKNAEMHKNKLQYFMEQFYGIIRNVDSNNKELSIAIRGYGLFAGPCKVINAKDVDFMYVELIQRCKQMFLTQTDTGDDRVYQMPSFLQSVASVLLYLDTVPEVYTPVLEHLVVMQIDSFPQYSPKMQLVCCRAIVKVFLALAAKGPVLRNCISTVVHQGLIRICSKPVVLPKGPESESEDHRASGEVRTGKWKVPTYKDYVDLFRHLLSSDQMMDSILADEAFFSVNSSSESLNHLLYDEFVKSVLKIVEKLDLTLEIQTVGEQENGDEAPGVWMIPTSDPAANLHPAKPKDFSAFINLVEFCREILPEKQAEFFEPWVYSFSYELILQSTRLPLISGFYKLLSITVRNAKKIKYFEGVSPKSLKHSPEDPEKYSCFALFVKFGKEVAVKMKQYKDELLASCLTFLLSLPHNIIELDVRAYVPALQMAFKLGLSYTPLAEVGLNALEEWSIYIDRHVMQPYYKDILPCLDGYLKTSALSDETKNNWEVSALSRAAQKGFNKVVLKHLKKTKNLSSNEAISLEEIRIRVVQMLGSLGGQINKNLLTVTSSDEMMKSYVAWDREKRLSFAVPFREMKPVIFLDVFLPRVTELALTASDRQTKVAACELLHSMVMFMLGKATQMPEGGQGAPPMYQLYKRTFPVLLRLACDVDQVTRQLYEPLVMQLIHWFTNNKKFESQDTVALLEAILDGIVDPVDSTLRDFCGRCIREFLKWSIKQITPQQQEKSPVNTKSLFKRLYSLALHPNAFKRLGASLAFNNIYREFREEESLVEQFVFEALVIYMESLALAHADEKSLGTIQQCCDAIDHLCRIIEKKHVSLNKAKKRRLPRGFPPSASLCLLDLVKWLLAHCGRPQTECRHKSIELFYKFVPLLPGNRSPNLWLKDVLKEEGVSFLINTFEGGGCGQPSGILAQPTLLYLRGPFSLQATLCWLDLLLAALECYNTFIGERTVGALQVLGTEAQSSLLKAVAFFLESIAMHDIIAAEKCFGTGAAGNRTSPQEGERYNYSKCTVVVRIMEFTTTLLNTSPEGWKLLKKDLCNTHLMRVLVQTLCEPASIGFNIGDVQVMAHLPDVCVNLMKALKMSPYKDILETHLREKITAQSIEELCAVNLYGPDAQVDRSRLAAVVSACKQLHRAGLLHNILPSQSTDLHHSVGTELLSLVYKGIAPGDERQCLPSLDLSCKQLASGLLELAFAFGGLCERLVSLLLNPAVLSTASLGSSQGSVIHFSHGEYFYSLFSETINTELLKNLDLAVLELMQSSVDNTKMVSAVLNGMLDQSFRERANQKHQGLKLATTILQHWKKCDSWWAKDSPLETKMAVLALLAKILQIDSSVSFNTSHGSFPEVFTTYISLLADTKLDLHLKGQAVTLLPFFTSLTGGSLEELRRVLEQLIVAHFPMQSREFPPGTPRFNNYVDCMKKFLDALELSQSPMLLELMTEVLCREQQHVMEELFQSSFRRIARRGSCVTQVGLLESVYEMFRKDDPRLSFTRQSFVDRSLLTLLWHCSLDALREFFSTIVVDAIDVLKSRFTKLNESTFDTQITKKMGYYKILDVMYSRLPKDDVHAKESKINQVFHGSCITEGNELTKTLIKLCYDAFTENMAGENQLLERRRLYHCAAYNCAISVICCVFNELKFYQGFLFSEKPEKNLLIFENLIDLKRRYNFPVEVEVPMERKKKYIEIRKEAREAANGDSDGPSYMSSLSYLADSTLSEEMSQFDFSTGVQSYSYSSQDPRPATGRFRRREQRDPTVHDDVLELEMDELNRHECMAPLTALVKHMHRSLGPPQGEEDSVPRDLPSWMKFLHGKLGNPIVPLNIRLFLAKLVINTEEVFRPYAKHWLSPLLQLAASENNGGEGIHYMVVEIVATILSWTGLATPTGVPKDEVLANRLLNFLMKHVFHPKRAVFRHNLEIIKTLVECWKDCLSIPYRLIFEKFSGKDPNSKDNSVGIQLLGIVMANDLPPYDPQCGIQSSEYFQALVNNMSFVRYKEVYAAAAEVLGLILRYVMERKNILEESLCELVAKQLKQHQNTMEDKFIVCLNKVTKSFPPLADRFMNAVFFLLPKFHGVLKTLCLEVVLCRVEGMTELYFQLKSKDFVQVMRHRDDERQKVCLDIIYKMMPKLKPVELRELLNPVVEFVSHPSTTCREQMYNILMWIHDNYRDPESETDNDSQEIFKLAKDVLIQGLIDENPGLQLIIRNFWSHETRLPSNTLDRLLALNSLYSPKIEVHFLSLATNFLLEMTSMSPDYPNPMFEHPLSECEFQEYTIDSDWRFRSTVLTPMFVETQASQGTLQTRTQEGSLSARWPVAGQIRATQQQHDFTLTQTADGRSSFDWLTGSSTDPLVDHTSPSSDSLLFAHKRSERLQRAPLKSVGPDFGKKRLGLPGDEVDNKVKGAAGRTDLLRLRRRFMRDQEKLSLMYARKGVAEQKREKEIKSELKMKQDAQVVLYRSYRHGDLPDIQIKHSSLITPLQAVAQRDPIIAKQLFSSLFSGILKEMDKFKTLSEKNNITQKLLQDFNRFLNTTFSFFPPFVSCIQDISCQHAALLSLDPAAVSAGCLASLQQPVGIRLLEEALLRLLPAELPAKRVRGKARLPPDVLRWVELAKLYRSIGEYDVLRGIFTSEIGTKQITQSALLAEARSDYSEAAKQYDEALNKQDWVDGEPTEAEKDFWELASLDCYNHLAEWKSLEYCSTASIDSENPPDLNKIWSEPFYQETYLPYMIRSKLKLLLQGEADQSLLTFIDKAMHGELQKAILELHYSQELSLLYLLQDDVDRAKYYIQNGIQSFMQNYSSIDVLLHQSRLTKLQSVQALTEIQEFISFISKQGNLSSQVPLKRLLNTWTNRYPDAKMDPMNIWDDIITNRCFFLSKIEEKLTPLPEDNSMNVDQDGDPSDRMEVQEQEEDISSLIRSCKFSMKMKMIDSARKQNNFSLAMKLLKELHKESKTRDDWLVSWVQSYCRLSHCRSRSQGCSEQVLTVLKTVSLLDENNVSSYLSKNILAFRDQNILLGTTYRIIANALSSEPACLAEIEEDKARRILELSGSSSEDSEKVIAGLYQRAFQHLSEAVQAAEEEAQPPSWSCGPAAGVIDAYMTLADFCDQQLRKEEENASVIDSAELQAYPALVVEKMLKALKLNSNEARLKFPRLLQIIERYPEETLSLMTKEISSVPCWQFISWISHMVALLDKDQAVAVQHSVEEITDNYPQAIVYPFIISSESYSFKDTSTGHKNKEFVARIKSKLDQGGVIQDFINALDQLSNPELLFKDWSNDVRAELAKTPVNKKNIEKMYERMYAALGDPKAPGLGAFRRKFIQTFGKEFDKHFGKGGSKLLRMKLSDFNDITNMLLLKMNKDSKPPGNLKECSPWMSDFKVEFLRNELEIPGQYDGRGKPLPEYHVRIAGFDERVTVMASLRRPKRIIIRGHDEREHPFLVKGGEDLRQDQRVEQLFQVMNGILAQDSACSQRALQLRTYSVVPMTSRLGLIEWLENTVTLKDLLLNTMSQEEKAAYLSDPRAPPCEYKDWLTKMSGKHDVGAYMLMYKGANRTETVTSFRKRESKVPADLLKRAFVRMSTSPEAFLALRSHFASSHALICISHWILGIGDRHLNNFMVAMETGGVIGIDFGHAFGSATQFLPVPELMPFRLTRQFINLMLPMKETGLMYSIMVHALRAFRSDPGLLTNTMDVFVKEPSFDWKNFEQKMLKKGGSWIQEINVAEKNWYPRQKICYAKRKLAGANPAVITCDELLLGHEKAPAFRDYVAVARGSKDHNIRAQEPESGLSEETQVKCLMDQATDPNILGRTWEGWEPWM
# Phosphatidylinositol 4,5-bisphosphate 3-kinase catalytic subunit alpha isoform, sequence (P42336 whole entry, canonical isoform): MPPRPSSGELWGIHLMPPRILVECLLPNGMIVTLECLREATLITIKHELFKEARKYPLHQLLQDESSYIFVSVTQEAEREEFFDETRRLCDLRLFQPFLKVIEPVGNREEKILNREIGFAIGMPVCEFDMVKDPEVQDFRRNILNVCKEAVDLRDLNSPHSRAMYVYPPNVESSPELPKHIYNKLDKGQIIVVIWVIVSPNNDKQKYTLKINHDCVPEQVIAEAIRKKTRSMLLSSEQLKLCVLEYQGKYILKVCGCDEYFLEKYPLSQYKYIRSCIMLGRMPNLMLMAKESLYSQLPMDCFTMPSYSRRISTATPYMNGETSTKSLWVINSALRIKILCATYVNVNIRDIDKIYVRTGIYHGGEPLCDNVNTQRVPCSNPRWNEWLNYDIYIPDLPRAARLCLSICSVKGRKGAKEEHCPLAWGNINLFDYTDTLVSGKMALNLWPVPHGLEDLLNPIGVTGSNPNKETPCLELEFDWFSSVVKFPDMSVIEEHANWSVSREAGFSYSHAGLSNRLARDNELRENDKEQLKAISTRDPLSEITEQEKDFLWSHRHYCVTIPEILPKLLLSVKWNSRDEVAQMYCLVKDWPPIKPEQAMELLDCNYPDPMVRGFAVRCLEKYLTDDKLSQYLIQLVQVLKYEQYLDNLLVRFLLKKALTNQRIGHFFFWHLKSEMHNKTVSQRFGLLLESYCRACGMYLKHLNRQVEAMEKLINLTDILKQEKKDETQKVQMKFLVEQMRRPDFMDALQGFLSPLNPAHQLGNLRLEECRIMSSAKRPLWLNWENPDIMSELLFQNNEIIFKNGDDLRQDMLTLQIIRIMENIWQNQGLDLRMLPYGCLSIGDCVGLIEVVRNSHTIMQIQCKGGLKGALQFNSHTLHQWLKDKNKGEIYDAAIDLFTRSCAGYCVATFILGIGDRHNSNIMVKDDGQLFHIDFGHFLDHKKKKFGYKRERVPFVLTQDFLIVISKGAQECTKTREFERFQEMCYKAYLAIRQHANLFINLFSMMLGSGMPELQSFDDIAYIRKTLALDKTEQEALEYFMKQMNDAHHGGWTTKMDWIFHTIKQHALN
smiles,measurement,setting,value
COc1ccc2oc(=O)cc(N3CCOCC3)c2c1,IC50,[1],1200 nM
O=c1cc(N2CCOCC2)oc2c(-c3cccc4c3oc3ccccc34)cccc12,IC50,[1],41 nM
Cc1cc(C(C)Nc2ccccc2)c2nc(N3CCOCC3)cc(=O)n2c1 (stereo not drawn),IC50,[2],> 1000 nM
O=c1cc(-c2ccccc2)oc2cc(N3CCOCC3)cc(O)c12,IC50,[3],34 nM
O=c1cc(N2CCOCC2)nc2c(-c3cccc4c3sc3ccccc34)cccn12,IC50,[1],13 nM
Cc1ccc2c(=O)cc(N3CCOCC3)oc2c1-c1cccc2c1sc1ccccc12,IC50,[1],5 nM and 14 nM
O=C(c1ccc(O)cc1)c1ccc(N2CCOCC2)cc1O,IC50,[3],35 nM
Oc1ccc2nc(-c3ccccc3)nc(N3CCOCC3)c2c1,IC50,[2],1300 nM
CNC(=O)Nc1ccc(-c2nc(N3CCOCC3)nc3c2cnn3C2CCOCC2)cc1,IC50,[4],23 nM
CCn1nnc2c(N3CCOCC3)nc(-c3ccc(NC(=O)Nc4ccc(C(=O)N5CCN(C)CC5)cc4)cc3)nc21,IC50,MDA-MB-361,10 nM
same,IC50,[4],3 nM
same,bioavailability,[5],88.6%
CN(C)C1CCN(C(=O)c2ccc(NC(=O)Nc3ccc(-c4nc(N5CCOCC5)nc(N5CCOCC5)n4)cc3)cc2)CC1 [GEDATOLISIB],half-life,[6],210 min
O=c1cc(N2CCOCC2)oc2c(-c3ccccc3)cccc12 [LY-294002],IC50,[7],2500 nM
same,IC50,[8],1600 nM
Oc1cccc(-c2nc(N3CCOCC3)c3oc4ncccc4c3n2)c1 [PI-103],IC50,[9],83 nM
Cc1nc2c(-c3cnc(N)nc3)nc(N3CCOCC3)nc2n1C(C)C [VS-5584],bioavailability,[10],100%
same,half-life,[11],600 min
